In patent publication US20200385371A1 (Propellon Therapeutics Inc., priority 2017, published 2020) one finds EC50, Kd and IC50 data, which are given here for 17 molecules.

pEC50, pIC50, pKd: −log10 of the molar value. Structures can show the parent of a compound that is named as a salt.

In one test the test system is MV4-11 cells. Description: Cell proliferation assay (ATPlite). Type of test: cell-based. The note with it: Homo sapiens, 120 h; MV4-11 cells, five days; read-out: GI MV411 EC50. An outline of the steps:
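ATPlite luminescence after five days' culture (37° C, 5% CO2) gives viability. Compounds dosed in 10 concentrations up to 10 μM against DMSO; 1,000 cells/well seeded in Alpha-MEM/10% FBS.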
A general note: ATP-based viability assays read luminescence as a measure of living cells.

For test [1], the target named is T1, WDR5 (Homo sapiens, UniProt P61964). Description: Surface Plasmon Resonance (SPR) assay. The arrangement: Full length WDR5 with an N-terminal His tag and C-terminal AviTag; His tag (N); made in house; host or cells: E. coli. To be noted: read-out: SPR Kd. Format: binding. Put shortly: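 Full-length biotinylated WDR5 (N-His, C-AviTag, E. coli) captured (~3000 RU) on streptavidin SA chip; Biacore T200. HBS-EP pH 7.4 plus 5% DMSO running buffer, 40 μl/min.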

The target in test [2] is T1, WDR5. In words: Fluorescence Polarization (FP) binding assay. Put shortly: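 Buffer was pH 6.5 sodium phosphate (80 mM) with 20 mM KCl and 0.008% Triton X-100; 9-Ala-FAM probe at 20 nM used 0.05 μM WDR5 and 480/540 nm polarization, H3 (1-15) probe at 30 nM used 0.3 μM WDR5 and 485/528 nm. Quadruplicate data were hyperbola-fitted to give Kdisp.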

Regarding `CC(C)[C@@H]1CN(c2ncc(-c3c(F)cc(N4C[C@@H](C)N(C)[C@@H](C)C4)c(NC(=O)c4c[nH]c(=O)cc4C(F)(F)F)c3F)cn2)CCO1` [Example 105, N-(2,4-difluoro-3-(2-((R)-2-isopropylmorpholino)pyrimidin-5-yl)-6-((3S,5R)-3,4,5-trimethylpiperazin-1-yl)phenyl)-6-oxo-4-(trifluoromethyl)-1,6-dihydropyridine-3-carboxamide], the pEC50 – broadly, −log10 of the EC50, conventionally taken in molar units – in the test on MV4-11 cells is 7.84. Moreover, the negative-log Kd (pKd) – broadly, the Kd on a negative log10 scale, so that one unit is a factor of ten – at WDR5 [1] is 8.41. In addition, the pIC50 – broadly, the negative decadic logarithm of the IC50, by convention in mol/L – on WDR5 [2] was 7.83.
`C[C@@H]1CN(c2cc(F)c(-c3cnc(N4CC5CCC(C4)O5)nc3)c(F)c2NC(=O)c2c[nH]c(=O)cc2C(F)F)C[C@H](C)N1C` [Example 156, N-(3-(2-(8-oxa-3-azabicyclo[3.2.1]octan-3-yl)pyrimidin-5-yl)-2,4-difluoro-6-((3S,5R)-3,4,5-trimethylpiperazin-1-yl)phenyl)-4-(difluoromethyl)-6-oxo-1,6-dihydropyridine-3-carboxamide]: in the test on MV4-11 cells, the negative logarithm of the EC50 (pEC50) is 7.09. Also, the pKd on WDR5 [1] was 8.71. For the same molecule, the negative logarithm of the IC50 (pIC50) on WDR5 [2] was 7.81.
Turning to `C[C@H]1CN(c2cc(F)c(-c3ccc(N4CCOCC4)nc3)c(F)c2NC(=O)c2ccc(F)cc2C(F)F)CCN1C` [Example 180, (S)-2-(Difluoromethyl)-N-(6-(3,4-dimethylpiperazin-1-yl)-2,4-difluoro-3-(6-morpholinopyridin-3-yl)phenyl)-4-fluorobenzamide], the negative-log EC50 (pEC50) with MV4-11 cells is 6.70. Besides, the pKd on WDR5 [1] was 8.60. For the same molecule, the negative logarithm of the IC50 (pIC50) at WDR5 [2] is 7.65.
As for `C[C@H]1CN(c2cc(F)c(-c3cnc(N4CCNCC4)nc3)c(F)c2NC(=O)c2ccc(F)cc2C(F)(F)F)CCN1C` [Example 173, (S)—N-(6-(3,4-dimethylpiperazin-1-yl)-2,4-difluoro-3-(2-(piperazin-1-yl)pyrimidin-5-yl)phenyl)-4-fluoro-2-(trifluoromethyl)benzamide], the negative-log EC50 (pEC50) with MV4-11 cells was 7.61. In addition, the pKd at WDR5 [1] is 8.87. Further, at WDR5 [2], the negative logarithm of the IC50 (pIC50) is 7.80.
In the case of `C[C@@H]1CN(c2cc(F)c(C3=CCN(c4ncc(F)cn4)C3)c(F)c2NC(=O)c2c[nH]c(=O)cc2C(F)(F)F)C[C@H](C)N1C` [Example 147, N-(2,4-difluoro-3-(1-(5-fluoropyrimidin-2-yl)-2,5-dihydro-1H-pyrrol-3-yl)-6-((3S,5R)-3,4,5-trimethylpiperazin-1-yl)phenyl)-6-oxo-4-(trifluoromethyl)-1,6-dihydropyridine-3-carboxamide], the negative-log EC50 (pEC50) in the test with MV4-11 cells is 7.42. Further, the pKd at WDR5 [1] was 9.15. At WDR5 [2], the pIC50 was 7.71.
`CC(C)[C@H]1CN(c2ncc(-c3c(F)cc(N4C[C@@H](C)N(C)[C@@H](C)C4)c(NC(=O)c4c[nH]c(=O)cc4C(F)F)c3F)cn2)CCO1` [Example 122, N-(2,4-Difluoro-3-(2-((S)-2-isopropylmorpholino)pyrimidin-5-yl)-6-((3S,5R)-3,4,5-trimethylpiperazin-1-yl)phenyl)-4-(difluoromethyl)-6-oxo-1,6-dihydropyridine-3-carboxamide]: in the test on MV4-11 cells, the pEC50 is 7.66. The pKd on WDR5 [1] was 8.70. In addition, the pIC50 on WDR5 [2] was 7.90.
Regarding `C[C@H]1CN(c2cc(F)c(C3=CCN(c4ncc(F)cn4)C3)c(F)c2NC(=O)c2c[nH]c(=O)cc2C(F)F)CCN1C` [Example 91, (S)-4-(difluoromethyl)-N-(6-(3,4-dimethylpiperazin-1-yl)-2,4-difluoro-3-(1-(5-fluoropyrimidin-2-yl)-2,5-dihydro-1H-pyrrol-3-yl)phenyl)-6-oxo-1,6-dihydropyridine-3-carboxamide], in the test with MV4-11 cells, the pEC50 was 7.42. In addition, on WDR5 [1], the negative logarithm of the Kd (pKd) is 8.81. Also, at WDR5 [2], the pIC50 is 7.80.
The matching figures for `C[C@@H]1CN(c2ncc(-c3c(F)cc(N4C[C@@H](C)N(C)[C@@H](C)C4)c(NC(=O)c4ccc(F)cc4C(F)F)c3F)cn2)C[C@H](C)O1` [Example 109, 2-(Difluoromethyl)-N-(3-(2-((2S,6R)-2,6-dimethylmorpholino)pyrimidin-5-yl)-2,4-difluoro-6-((3S,5R)-3,4,5-trimethylpiperazin-1-yl)phenyl)-4-fluorobenzamide Formic Acid]: 8.13, 8.59 and 7.84.
As for `Cc1sc(-c2c(F)cc(N3CCN(C)[C@@H](C)C3)c(NC(=O)c3ccc(F)cc3C(F)(F)F)c2F)nc1C(=O)N1CCCC1` [Example 154, (S)—N-(6-(3,4-dimethylpiperazin-1-yl)-2,4-difluoro-3-(5-methyl-4-(pyrrolidine-1-carbonyl)thiazol-2-yl)phenyl)-4-fluoro-2-(trifluoromethyl)benzamide], in the test with MV4-11 cells, the pEC50 was 7.04. Besides, the negative-log Kd (pKd) on WDR5 [1] was 9.19. For the same molecule, the negative logarithm of the IC50 (pIC50) at WDR5 [2] is 7.94.
The corresponding values for `C[C@H]1CN(c2ccc(-c3c(F)cc(N4CCN(C)[C@@H](C)C4)c(NC(=O)c4c[nH]c(=O)cc4C(F)(F)F)c3F)cn2)CCO1` [Example 171, N-(6-((S)-3,4-dimethylpiperazin-1-yl)-2,4-difluoro-3-(6-((S)-2-methylmorpholino)pyridin-3-yl)phenyl)-6-oxo-4-(trifluoromethyl)-1,6-dihydropyridine-3-carboxamide] are 7.28, 9.31 and 7.79.
On to `C[C@@H]1CN(c2ncc(-c3c(F)cc(N4CCN(C)[C@@H](C)C4)c(NC(=O)c4ccc(F)cc4C(F)(F)F)c3F)cn2)C[C@@H](C)O1` [Example 167, N-(3-(2-((2R,6R)-2,6-dimethylmorpholino)pyrimidin-5-yl)-6-((S)-3,4-dimethylpiperazin-1-yl)-2,4-difluorophenyl)-4-fluoro-2-(trifluoromethyl)benzamide Formic Acid Salt], for which the negative logarithm of the EC50 (pEC50) with MV4-11 cells was 7.12. For the same molecule, the negative-log Kd (pKd) at WDR5 [1] is 9.18. In addition, the negative-log IC50 (pIC50) at WDR5 [2] is 7.94.
As for `C[C@@H]1CN(c2cc(F)c(-c3cnc(N4CCO[C@@H](C)C4)nc3)c(F)c2NC(=O)c2c[nH]c(=O)cc2C(F)F)C[C@H](C)N1C` [Example 125, N-(2,4-difluoro-3-(2-((S)-2-methylmorpholino)pyrimidin-5-yl)-6-((3S,5R)-3,4,5-trimethylpiperazin-1-yl)phenyl)-4-(difluoromethyl)-6-oxo-1,6-dihydropyridine-3-carboxamide], the pEC50 in the test with MV4-11 cells is 7.71. The negative-log Kd (pKd) on WDR5 [1] is 9.16. On WDR5 [2], the negative logarithm of the IC50 (pIC50) is 7.93.
Consider `COc1cnc(N2CC=C(c3c(F)cc(N4CCN(C)[C@@H](C)C4)c(NC(=O)c4c[nH]c(=O)cc4C(F)F)c3F)CC2)nc1` [Example 48, (S)-4-(difluoromethyl)-N-(6-(3,4-dimethylpiperazin-1-yl)-2,4-difluoro-3-(1-(5-methoxypyrimidin-2-yl)-1,2,3,6-tetrahydropyridin-4-yl)phenyl)-6-oxo-1,6-dihydropyridine-3-carboxamide], for which the pEC50 in the test on MV4-11 cells was 6.57. In addition, on WDR5 [1], the negative-log Kd (pKd) is 8.83. For the same molecule, the negative logarithm of the IC50 (pIC50) on WDR5 [2] is 7.65.
For the molecule `C[C@H]1CN(c2cc(F)c(C3=CCN(c4ncc(F)cn4)CC3)c(F)c2NC(=O)c2c[nH]c(=O)cc2C(F)F)CCN1C` [Example 81, (S)-4-(difluoromethyl)-N-(6-(3,4-dimethylpiperazin-1-yl)-2,4-difluoro-3-(1-(5-fluoropyrimidin-2-yl)-1,2,3,6-tetrahydropyridin-4-yl)phenyl)-6-oxo-1,6-dihydropyridine-3-carboxamide], in the test on MV4-11 cells, the pEC50 was 7.36. The negative logarithm of the Kd (pKd) on WDR5 [1] was 8.86. Besides, the pIC50 at WDR5 [2] was 7.90.
The matching figures for `C[C@@H]1CN(c2ccc(-c3c(F)cc(N4C[C@@H](C)N(C)[C@@H](C)C4)c(NC(=O)c4c[nH]c(=O)cc4C(F)F)c3F)cn2)C[C@H](C)O1` [Example 191, 4-(Difluoromethyl)-N-(3-(6-((2S,6R)-2,6-dimethylmorpholino)pyridin-3-yl)-2,4-difluoro-6-((3S,5R)-3,4,5-trimethylpiperazin-1-yl)phenyl)-6-oxo-1,6-dihydropyridine-3-carboxamide]: 7.39, 8.97 and 7.97.
The corresponding values for `Cc1nc(C(=O)N2CCC=C(c3c(F)cc(N4C[C@@H](C)N(C)[C@@H](C)C4)c(NC(=O)c4c[nH]c(=O)cc4C(F)(F)F)c3F)C2)cs1` [Example 188, N-(2,4-difluoro-3-(1-(2-methylthiazole-4-carbonyl)-1,2,5,6-tetrahydropyridin-3-yl)-6-((3S,5R)-3,4,5-trimethylpiperazin-1-yl)phenyl)-6-oxo-4-(trifluoromethyl)-1,6-dihydropyridine-3-carboxamide] are 6.33, 8.60 and 7.88.
For the molecule `C[C@@H]1CN(c2cc(F)c(-c3ccc4c(c3)OCCO4)c(F)c2NC(=O)c2c[nH]c(=O)cc2C(F)(F)F)C[C@H](C)N1C` [Example 72, N-(3-(2,3-dihydrobenzo[b][1,4]dioxin-6-yl)-2,4-difluoro-6-((3S,5R)-3,4,5-trimethylpiperazin-1-yl)phenyl)-6-oxo-4-(trifluoromethyl)-1,6-dihydropyridine-3-carboxamide], in the test on MV4-11 cells, the pEC50 was 7.00. Also, on WDR5 [1], the negative-log Kd (pKd) is 9.15. For the same molecule, the negative logarithm of the IC50 (pIC50) at WDR5 [2] is 7.74.
